Data published in BindingDB's records for patent US9334290 (Bristol Myers Squibb, 2016).

Biological target: Tyrosine-protein kinase JAK2 (Homo sapiens, UniProt O60674)
Assay: Jak2 Tyrosine Kinase Assay
Conditions: pH 7.4; 25 °C

Tyrosine-protein kinase JAK2, sequence (O60674 whole entry): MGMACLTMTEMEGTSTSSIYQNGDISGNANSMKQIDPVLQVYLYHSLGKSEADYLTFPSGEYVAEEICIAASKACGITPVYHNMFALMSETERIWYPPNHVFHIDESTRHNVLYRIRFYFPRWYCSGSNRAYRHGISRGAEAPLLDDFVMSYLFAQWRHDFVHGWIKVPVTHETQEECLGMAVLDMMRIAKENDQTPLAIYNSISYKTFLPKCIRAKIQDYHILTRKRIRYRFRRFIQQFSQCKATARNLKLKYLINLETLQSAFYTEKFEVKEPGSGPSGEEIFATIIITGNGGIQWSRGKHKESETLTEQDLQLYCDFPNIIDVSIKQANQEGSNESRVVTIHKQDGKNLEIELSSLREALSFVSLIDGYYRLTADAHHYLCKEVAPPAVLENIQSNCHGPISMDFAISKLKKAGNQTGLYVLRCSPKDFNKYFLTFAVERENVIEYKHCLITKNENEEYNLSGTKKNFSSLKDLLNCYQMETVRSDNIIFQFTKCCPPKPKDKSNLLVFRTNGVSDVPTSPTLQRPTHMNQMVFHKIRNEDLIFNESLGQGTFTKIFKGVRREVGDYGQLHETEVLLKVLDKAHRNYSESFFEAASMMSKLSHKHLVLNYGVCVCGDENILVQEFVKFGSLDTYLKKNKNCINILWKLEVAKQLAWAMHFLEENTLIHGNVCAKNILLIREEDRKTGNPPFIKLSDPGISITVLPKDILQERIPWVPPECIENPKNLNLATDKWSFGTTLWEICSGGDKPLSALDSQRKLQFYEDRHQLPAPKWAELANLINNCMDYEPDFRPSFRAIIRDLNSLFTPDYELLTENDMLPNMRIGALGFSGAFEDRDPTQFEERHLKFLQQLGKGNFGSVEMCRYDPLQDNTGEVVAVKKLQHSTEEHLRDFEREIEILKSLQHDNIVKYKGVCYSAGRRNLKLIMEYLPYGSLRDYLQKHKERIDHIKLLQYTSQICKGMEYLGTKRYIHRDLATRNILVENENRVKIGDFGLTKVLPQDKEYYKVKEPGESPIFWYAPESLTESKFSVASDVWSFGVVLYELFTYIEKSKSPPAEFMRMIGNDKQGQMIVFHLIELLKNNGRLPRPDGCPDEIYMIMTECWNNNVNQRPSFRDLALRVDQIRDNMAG

Cc1c(-c2c(F)cc(C(N)=O)c3[nH]c4cc(C(C)(C)O)ccc4c23)cccc1-n1c(=O)[nH]c2c(F)cccc2c1=O [US9334290, 21]
IC50: 760 nM
